Data on three molecules can be found in doi:10.1101/2020.02.07.939504v1 (biorxiv, 2020).

In one test the target is X513-OpuBC. Nature of the test: isothermal titration calorimetry. The conditions noted are these: 25 °C, PBS, single experiment. It counts as binding, Thermoanaerobacter sp. X513. (In general: ITC needs no label: the signal is the heat of the interaction.)
Another test concerns the target y-iAChSnFR. The conditions noted are these: 200 nM purified sensor.
The target in another test is iAChSnFR (iAChSnFR0.9). The conditions noted are these: 200 nM soluble purified sensor.
The next test has as its target iAChSnFR0.4. Nature of the test: fluorescence titration of purified sensor. It counts as binding, Thermoanaerobacter sp. Conditions: read-out: apparent Kd; 200 nM purified sensor.

Where two headings read alike, the source gives them in different places. Where only a bound is given, the exact number is not on record here.

Turning to `C[N+](C)(C)CCO` [choline], the Kd at X513-OpuBC (variable stoichiometry fit, N = 0.55) was determined as 8 µM; at y-iAChSnFR, 20 µM; on iAChSnFR (iAChSnFR0.9) (read-out: apparent Kd), 45 ± 1.1 µM.
Turning to `CC(=O)OCC[N+](C)(C)C` [acetylcholine], the Kd was found to be 220 ± 16 µM on iAChSnFR0.4, 95 µM at X513-OpuBC (fit with fixed N = 1), 0.5 µM on y-iAChSnFR and 1.3 ± 1 µM on iAChSnFR (iAChSnFR0.9) (read-out: apparent Kd).
With `NCCc1c[nH]c2ccc(O)cc12` [serotonin], the Kd on iAChSnFR (iAChSnFR0.9) (read-out: affinity) was greater than 1000 µM.
